Data as given in the kinase profiling compilation of Christmann-Franck et al. (2016).

Key:
Test in all cases: KINOMEscan competition binding
Settings in all cases: compound 10.0 µM
[1] = system: KIT (human), P10721 [D816H]
[2] = molecular target: FER (human) (UniProt P16591)
[3] = molecular target: PIP5K1A (human) (UniProt Q99755)
[4] = molecular target: NEK6 (human) (UniProt Q9HC98)
[5] = molecular target: CAMK2A (human) (UniProt Q9UQM7)
[6] = molecular target: MAPK11 (human) (UniProt Q15759)
[7] = molecular target: NEK1 (human) (UniProt Q96PY6)
[8] = molecular target: DDR2 (human) (UniProt Q16832)
[9] = molecular target: PKN2 (human) (UniProt Q16513)
[10] = molecular target: LATS2 (human) (UniProt Q9NRM7)
Chain of LATS2 (human) (Q9NRM7 whole entry, looked up): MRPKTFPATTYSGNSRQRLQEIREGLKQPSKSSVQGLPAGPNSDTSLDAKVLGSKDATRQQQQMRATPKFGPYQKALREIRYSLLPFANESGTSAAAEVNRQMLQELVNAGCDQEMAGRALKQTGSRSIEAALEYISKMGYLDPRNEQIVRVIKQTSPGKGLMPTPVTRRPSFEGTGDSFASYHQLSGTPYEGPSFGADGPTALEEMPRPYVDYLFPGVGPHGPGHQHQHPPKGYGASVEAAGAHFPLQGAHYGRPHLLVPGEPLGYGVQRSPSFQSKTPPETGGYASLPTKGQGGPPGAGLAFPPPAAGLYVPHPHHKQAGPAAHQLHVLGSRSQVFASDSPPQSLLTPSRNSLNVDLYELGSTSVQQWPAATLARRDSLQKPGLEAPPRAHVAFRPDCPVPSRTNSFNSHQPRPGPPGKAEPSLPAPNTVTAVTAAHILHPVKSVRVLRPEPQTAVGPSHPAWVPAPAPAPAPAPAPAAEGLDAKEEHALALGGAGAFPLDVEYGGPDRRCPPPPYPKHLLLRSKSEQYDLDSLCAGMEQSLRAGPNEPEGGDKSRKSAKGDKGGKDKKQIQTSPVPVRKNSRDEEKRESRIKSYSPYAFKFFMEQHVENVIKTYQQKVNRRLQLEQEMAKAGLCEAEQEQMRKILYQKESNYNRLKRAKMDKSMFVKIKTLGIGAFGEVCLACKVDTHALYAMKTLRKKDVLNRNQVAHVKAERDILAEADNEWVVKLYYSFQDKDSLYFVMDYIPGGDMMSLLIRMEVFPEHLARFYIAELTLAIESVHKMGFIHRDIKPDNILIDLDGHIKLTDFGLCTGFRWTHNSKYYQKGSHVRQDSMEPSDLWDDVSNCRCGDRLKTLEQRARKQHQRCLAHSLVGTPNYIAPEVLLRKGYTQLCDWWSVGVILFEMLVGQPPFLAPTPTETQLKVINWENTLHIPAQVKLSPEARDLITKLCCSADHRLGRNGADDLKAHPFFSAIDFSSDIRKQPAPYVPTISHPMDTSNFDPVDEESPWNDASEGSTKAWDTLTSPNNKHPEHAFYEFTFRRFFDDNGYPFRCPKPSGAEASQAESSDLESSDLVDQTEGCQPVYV

[11] = molecular target: FRK (human) (UniProt P42685)
[12] = molecular target: MAP2K6 (human) (UniProt P52564)
Chain of MAP2K6 (human) (P52564 whole entry, looked up): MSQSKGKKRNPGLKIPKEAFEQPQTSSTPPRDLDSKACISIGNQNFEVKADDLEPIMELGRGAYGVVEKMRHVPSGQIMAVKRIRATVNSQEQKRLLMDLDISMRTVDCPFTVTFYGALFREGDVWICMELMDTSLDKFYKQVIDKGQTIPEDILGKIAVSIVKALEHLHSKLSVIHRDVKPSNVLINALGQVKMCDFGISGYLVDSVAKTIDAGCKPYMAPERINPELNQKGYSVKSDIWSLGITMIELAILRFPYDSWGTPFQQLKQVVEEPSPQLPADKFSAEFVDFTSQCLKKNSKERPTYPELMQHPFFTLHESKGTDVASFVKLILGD

[13] = molecular target: AKT1 (human) (UniProt P31749)
Chain of AKT1 (human) (P31749 whole entry, looked up): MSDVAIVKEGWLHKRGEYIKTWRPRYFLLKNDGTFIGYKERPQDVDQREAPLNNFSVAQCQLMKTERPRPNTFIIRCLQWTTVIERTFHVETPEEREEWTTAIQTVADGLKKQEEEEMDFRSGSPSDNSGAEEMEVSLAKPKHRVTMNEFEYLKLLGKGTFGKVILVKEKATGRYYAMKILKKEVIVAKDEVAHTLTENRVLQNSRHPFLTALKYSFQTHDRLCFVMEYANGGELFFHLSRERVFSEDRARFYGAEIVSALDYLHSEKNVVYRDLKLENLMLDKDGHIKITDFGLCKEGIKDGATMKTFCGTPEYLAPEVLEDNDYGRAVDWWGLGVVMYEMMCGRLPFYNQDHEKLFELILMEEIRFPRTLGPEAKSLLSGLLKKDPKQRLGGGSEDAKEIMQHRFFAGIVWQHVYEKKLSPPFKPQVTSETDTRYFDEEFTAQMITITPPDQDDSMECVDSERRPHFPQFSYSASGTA

[14] = molecular target: CAMK1D (human) (UniProt Q8IU85)
Chain of CAMK1D (human) (Q8IU85 whole entry, looked up): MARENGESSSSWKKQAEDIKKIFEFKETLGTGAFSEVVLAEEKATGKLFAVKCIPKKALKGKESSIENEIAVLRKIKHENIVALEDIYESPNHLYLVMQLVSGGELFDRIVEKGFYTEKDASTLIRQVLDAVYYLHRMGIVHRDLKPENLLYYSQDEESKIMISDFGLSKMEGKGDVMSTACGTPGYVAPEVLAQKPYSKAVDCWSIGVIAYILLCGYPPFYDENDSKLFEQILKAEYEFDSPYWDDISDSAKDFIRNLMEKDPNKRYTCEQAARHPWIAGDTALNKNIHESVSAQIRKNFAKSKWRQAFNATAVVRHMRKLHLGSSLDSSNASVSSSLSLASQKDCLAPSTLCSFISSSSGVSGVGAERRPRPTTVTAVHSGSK

[15] = system: MET (human), P08581 [M1250T]
[16] = molecular target: STK3 (human) (UniProt Q13188)
[17] = molecular target: MERTK (human) (UniProt Q12866)
Chain of MERTK (human) (Q12866 whole entry, looked up): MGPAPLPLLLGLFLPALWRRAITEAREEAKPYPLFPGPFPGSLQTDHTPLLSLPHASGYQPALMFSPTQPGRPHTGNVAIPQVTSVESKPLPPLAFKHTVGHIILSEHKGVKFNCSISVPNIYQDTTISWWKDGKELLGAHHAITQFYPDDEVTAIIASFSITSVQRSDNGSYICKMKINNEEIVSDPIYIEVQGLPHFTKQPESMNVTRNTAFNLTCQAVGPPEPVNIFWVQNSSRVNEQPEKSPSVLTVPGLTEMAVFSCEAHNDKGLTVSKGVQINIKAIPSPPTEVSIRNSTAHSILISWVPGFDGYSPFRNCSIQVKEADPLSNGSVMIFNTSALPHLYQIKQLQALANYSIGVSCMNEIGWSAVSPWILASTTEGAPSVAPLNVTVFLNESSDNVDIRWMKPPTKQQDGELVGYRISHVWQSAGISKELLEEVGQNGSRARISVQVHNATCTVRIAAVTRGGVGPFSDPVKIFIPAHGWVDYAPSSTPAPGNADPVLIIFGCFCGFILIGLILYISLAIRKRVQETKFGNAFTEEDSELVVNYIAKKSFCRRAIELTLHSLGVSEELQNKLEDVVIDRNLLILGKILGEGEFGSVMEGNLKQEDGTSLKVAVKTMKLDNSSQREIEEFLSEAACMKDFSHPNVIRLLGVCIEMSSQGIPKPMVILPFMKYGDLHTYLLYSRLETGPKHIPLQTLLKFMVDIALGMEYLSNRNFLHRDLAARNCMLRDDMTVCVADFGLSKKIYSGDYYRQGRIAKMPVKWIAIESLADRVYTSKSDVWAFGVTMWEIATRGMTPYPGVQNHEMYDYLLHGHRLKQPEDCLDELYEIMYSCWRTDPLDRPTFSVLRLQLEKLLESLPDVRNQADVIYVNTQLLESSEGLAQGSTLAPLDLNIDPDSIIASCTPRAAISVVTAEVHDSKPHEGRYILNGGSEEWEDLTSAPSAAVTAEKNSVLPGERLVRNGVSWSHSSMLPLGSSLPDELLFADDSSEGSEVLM

[18] = molecular target: TIE1 (human) (UniProt P35590)
[19] = molecular target: EPHA1 (human) (UniProt P21709)
[20] = molecular target: MYLK (human) (UniProt Q15746)
[21] = molecular target: ITK (human) (UniProt Q08881)
[22] = molecular target: KIT (human) (UniProt P10721)
[23] = molecular target: EPHA8 (human) (UniProt P29322)
[24] = molecular target: LATS1 (human) (UniProt O95835)
[25] = molecular target: PRKG1 (human) (UniProt Q13976)
Chain of PRKG1 (human) (Q13976 whole entry, looked up): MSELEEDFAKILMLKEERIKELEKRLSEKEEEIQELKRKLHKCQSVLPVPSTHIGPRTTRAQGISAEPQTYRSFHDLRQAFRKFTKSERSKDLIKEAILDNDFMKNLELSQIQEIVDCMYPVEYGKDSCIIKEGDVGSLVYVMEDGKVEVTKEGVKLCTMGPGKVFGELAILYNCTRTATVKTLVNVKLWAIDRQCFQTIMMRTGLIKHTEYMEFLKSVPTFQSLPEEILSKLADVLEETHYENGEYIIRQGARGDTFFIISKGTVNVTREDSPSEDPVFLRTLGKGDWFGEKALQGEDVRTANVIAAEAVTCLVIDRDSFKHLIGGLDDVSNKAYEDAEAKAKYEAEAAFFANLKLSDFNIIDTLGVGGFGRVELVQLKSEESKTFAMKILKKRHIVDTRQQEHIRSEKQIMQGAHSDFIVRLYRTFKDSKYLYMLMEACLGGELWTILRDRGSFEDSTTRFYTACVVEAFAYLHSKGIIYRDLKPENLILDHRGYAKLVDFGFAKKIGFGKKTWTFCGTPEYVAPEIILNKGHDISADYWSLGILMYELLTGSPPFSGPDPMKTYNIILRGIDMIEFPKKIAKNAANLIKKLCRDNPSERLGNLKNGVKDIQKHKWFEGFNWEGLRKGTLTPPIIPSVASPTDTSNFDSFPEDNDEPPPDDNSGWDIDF

[26] = molecular target: RPS6KB1 (human) (UniProt P23443)
Chain of RPS6KB1 (human) (P23443 whole entry, looked up): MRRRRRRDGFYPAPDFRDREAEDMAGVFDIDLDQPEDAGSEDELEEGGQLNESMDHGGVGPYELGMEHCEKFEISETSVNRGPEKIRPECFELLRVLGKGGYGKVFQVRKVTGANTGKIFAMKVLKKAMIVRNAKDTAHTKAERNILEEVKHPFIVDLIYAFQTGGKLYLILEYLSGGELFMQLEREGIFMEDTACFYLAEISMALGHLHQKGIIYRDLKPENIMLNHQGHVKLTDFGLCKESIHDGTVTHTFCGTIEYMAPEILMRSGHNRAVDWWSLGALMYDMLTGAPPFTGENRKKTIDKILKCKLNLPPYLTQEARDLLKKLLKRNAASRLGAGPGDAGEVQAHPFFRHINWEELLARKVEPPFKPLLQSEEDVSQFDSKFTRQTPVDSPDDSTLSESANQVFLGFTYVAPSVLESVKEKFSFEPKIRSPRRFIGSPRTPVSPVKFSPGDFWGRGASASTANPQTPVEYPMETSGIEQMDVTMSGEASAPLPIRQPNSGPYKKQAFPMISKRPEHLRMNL

[27] = molecular target: ERBB4 (human) (UniProt Q15303)
[28] = molecular target: MAK (human) (UniProt P20794)
[29] = molecular target: VRK2 (human) (UniProt Q86Y07)
[30] = molecular target: EIF2AK2 (human) (UniProt P19525)
Chain of EIF2AK2 (human) (P19525 whole entry, looked up): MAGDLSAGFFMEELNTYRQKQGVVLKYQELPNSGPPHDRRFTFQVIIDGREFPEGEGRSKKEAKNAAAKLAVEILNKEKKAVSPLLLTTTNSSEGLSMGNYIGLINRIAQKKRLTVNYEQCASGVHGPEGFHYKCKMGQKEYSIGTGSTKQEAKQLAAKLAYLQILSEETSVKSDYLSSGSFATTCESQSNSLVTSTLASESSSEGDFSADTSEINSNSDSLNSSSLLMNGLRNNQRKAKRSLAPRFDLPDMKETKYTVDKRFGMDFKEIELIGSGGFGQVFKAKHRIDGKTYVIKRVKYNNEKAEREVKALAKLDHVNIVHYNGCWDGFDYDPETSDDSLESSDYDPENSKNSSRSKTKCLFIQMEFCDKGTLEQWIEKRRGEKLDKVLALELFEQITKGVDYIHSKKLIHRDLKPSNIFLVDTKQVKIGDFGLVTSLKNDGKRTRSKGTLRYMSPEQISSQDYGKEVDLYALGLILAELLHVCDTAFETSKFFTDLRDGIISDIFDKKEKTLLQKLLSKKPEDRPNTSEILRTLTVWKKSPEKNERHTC

[31] = molecular target: PRKCH (human) (UniProt P24723)
[32] = molecular target: ULK1 (human) (UniProt O75385)
[33] = molecular target: MUSK (human) (UniProt O15146)
[34] = molecular target: TNK2 (human) (UniProt Q07912)
[35] = molecular target: GAK (human) (UniProt O14976)
[36] = molecular target: STK16 (human) (UniProt O75716)

Structure (SMILES): CCc1nc(-c2cccc(C)c2)c(-c2ccnc(NC(=O)c3ccccc3)c2)s1
- kinase still bound, per cent of control [1]: 57%
- kinase still bound, per cent of control [2]: 60%
- kinase still bound, per cent of control [3]: 100%
- kinase still bound, per cent of control [4]: 100%
- kinase still bound, per cent of control [5]: 89%
- kinase still bound, per cent of control [6]: 0%
- kinase still bound, per cent of control [7]: 90%
- kinase still bound, per cent of control [8]: 16%
- kinase still bound, per cent of control [9]: 76%
- kinase still bound, per cent of control [10]: 90%
- kinase still bound, per cent of control [11]: 36%
- kinase still bound, per cent of control [12]: 79%
- kinase still bound, per cent of control [13]: 100%
- kinase still bound, per cent of control [14]: 100%
- kinase still bound, per cent of control [15]: 100%
- kinase still bound, per cent of control [16]: 97%
- kinase still bound, per cent of control [17]: 100%
- kinase still bound, per cent of control [18]: 96%
- kinase still bound, per cent of control [19]: 56%
- kinase still bound, per cent of control [20]: 84%
- kinase still bound, per cent of control [21]: 100%
- kinase still bound, per cent of control [22]: 45%
- kinase still bound, per cent of control [23]: 89%
- kinase still bound, per cent of control [24]: 100%
- kinase still bound, per cent of control [25]: 100%
- kinase still bound, per cent of control [26]: 90%
- kinase still bound, per cent of control [27]: 2.8%
- kinase still bound, per cent of control [28]: 70%
- kinase still bound, per cent of control [29]: 63%
- kinase still bound, per cent of control [30]: 94%
- kinase still bound, per cent of control [31]: 88%
- kinase still bound, per cent of control [32]: 69%
- kinase still bound, per cent of control [33]: 100%
- kinase still bound, per cent of control [34]: 78%
- kinase still bound, per cent of control [35]: 4.4%
- kinase still bound, per cent of control [36]: 74%
